Source: patent publication US11607464B2, “Compositions and methods for the treatment and imaging of cancer” (BOARD OF REGENTS OF THE UNIVERSITY OF NEBRASKA, priority 2018, dated 2023)

What was measured:
[1] = test system: NCI 60 cancer cells; assay: NCI 60 cell five-dose screen; assay type: cell-based, human; settings: NCI 60 cell five-dose screen, FIG. 5
From the text: FIG. 5 provides the concentrations (nanomole/liter) required to inhibit by 50% growth of cancer cells (GI50) as measured with the National Cancer Institute (NCI) 60 cell five-dose screen assay.
The methodology and data analyses are described in detail at: dtp.cancer.gov/discovery_development/nci-60/methodology.

[2] = Stability in human serum (HPLC); assay type: in vitro ADME
Description: 4 (370 KBq-740 kBq) in 20 μL 25% EtOH/PB (10 mM PB, pH 6.1) was added to the solution of human serum (1980 μL). The mixture was briefly vortexed and kept up to 19 hours at ambient temperature or in the cell culture incubator (37° C., 5% CO2). At selected times, a 0.5-mL aliquot of the incubated mixture was withdrawn and analyzed by HPLC.
An aliquot of the incubation mixture (0.5 mL) was treated with MeCN (0.5 mL) to precipitate proteins, vortexed and centrifuged (2,000 rpm, 15 minutes). Aliquots of the supernatant (500 μL) were acidified to pH˜6 with 0.05 M TFA (2-8 μL). The excess of MeCN was evaporated with a stream of nitrogen and 100 μL water added. This mixture was passed through a 0.2-μm filter and samples (˜100 μL, 62.5 kBq-130 kBq) were injected on HPLC system.
The HPLC analyses proceeded on Luna C N (5μ, 4.6×250 mm) column. Eluent: solvent A potassium phosphate buffer (10 mM, pH 6.1), solvent B EtOH; all samples were eluted at 0.8 mL/minute, initially with a gradient of EtOH from 30% to 70% for 30 minutes, then from 70% to 95% over the next 15 minutes with detection of radioactivity and UV at 280 nm.

[3] = test system: BE(2)-C cells; assay: Colony-forming assay, radiotoxicity of ^131I-radiolabeled drug; assay type: cell-based, human; settings: for surviving fraction: BE(2)-C
Description: (§1) The cell uptake was tested as a function of the radioactive concentration and time of exposure. With each treatment group, triplicate flasks of controls cells in medium without the radioactive drug were grown and harvested alongside treated cells. Aliquots of the radioactive medium were reserved for gamma counting to assess the initial radioactive concentration. Each treatment was tested in triplicate in at least two independent experiments. Groups of treated cells were cultured in radioactive medium for 1 hour, 24 hours, 48 hours, and 72 hours and either harvested at these times or the radioactive medium was removed and replaced with the appropriate nonradioactive medium and then flasks were returned to the incubator for additional 24 hours. Radioactive medium was collected for radioactivity determination, monolayers were washed with ice-cold PBS. Cells used in the subcellular distribution experiments were harvested by scarping and cell numbers were determined. The subcellular distribution of radioactivity was determined as described before using NE-PER™ nuclear and cytoplasmic extraction reagents (Pierce Biotechnology, Rockford, Ill.).
(§2) Alongside all treatment groups, which included: drug alone (n=4), 4 Gy XRT alone (n=4), and drug+XRT (n=4), quadruplicate flasks of controls cells in medium containing DMSO were grown and harvested under identical culture conditions. Each treatment was tested in at least two independent experiments. The final concentration of DMSO was maintained at 0.5% in all flasks including controls. Cells grown in monolayers (50%-60% confluent) were irradiated at the dose of 4 Gy delivered at the dose rate of 1.36 Gy/minute in a Mark I 68A irradiator (J. L. Shepherd & Associates, San Fernando, Calif.). At designated times after treatment, cells were harvested, their numbers determined and plated at 200 and 500 live cells in duplicate or quadruplicate T25 flasks per each treatment. Cells were left undisturbed for ˜7 days after which time fresh medium was added and colonies were allowed to grow for up to 3 weeks. Colonies were washed with PBS, fixed with methanol, and stained with crystal violet. Briefly, colonies were washed with 5 mL ice-cold PBS, followed by 5 mL PBS/methanol (1:1; v/v), and fixed in 5 mL methanol for 10 minutes. Methanol was removed and flasks were left open to dry for a few hours. Crystal violet (3 mL; 0.25% in 1:1 PBS/methanol) was added to each flask to stain cells. After approximately 10 minutes, the dye was removed, flasks were rinsed with tap water followed by distilled water and were left to dry. Colonies were counted by two independent observers using the ImageJ software.

[4] = test system: SK-N-SH cells; assay: as above; assay type: cell-based, human; settings: for surviving fraction: 0.35 MBq/mL
Description: as §1, §2

[5] = Hematocrit and hemoglobin in treated mice; assay type: in vivo, athymic Ncr nu/nu mice; settings: terminal necropsy after therapy
Description: (§3) U-87MG cells were injected subcutaneously (SQ) in the dorsal area of the female and male 8-weeks old athymic Ncr nu/nu mice (n=10 per group). When tumor volume reached ˜150 mm^3 mice were randomized into treatment group and “sham” injected control group. The average tumor volumes on day 0 were 177±55 mm^3 and 141±25 mm^3 in the treatment group and untreated controls, respectively. Therapy mice received ^131I-4 at an average dose of 14.5±2.3 MBq/mouse. Tumor volumes and body weights were measured three times per week. When one tumor in control mice exceeded the volume of 3000 mm^3 (i.e., 10% of the body weight), the experiment was terminated. Necropsy was performed. Tumor weights and tumor-associated radioactivity were determined. Blood was collected and hemoglobin and hematocrit values were measured. Tumors sections were also analyzed by macroautoradiography.
The average and median weights of tumor extirpated from untreated control mice (NT) and ^131I-4 treated mice at the terminal necropsy after the therapy was also determined (FIG. 10A). Hematocrit and hemoglobin values in ^131I-4-treated and control (NT) mice were also determined (FIGS. 10B and 10C). FIGS. 10D and 10E also show macroautoradiography of sections of two tumors extirpated.

[6] = test system: SK-N-SH neuroblastoma, BE(2)-C neuroblastoma, and U-87 MG glioblastoma; assay: Survival of neuroblastoma and glioblastoma cells treated with ^131I-4; assay type: cell-based, human; settings: 0.185 MBq/mL and 0.35 MBq/mL, FIGS. 9A-9C
Description: FIGS. 9A-9C provide images of SK-N-SH neuroblastoma (FIG. 9A), BE(2)-C neuroblastoma (FIG. 9B), and U-87 MG glioblastoma (FIG. 9C) untreated or treated with compound ^131I-4 at 0.185 MBq/mL and 0.35 MBq/mL. Graphs of the cell uptake and clonogenic survival of the cells are also provided.
The survival of human neuroblastoma and glioblastoma cells either left untreated or treated with compound ^131I-4 at 0.185 MBq/mL and 0.35 MBq/mL was determined. The cell uptake and clonogenic survival of SK-N-SH neuroblastoma, BE(2)-C neuroblastoma, and U-87 MG glioblastoma was also determined (FIGS. 9A-9C).

[7] = test system: U-87MG; assay: Extracellular and intracellular D10 of cells exposed to ^131I-4; assay type: cell-based, human; settings: exposed for 48 hours
Description: as §1
(§4) The cell uptake of ^131I-4 was tested as a function of the radioactive concentration and time of exposure. Groups of treated cells—BE(2)-C (neuroblastoma), SK-N-SH cells (neuroblastoma), and U-87 MG (glioblastoma)—were cultured in radioactive medium for 1 hour, 24 hours, 48 hours, and 72 hours.

[8] = test system: SK-N-SH; assay: as above; assay type: cell-based, human; settings: exposed for 48 hours
Description: as §1, §4

[9] = test system: BE(2)-C; assay: as above; assay type: cell-based, human; settings: exposed for 48 hours
Description: as §1, §4

[10] = test system: U-87 MG xenograft; assay: U-87 MG xenograft therapy study in athymic mice; assay type: in vivo, athymic Ncr nu/nu mice
Description: as §3
U-87MG cells were injected subcutaneously (SQ) in the dorsal area of the female and male 8-weeks old athymic Ncr nu/nu mice (n=10 per group). Therapy mice received ^131I-4 at an average dose of 14.5±2.3 MBq/mouse and tumor volumes and body weights were measured three times per week.

For `COC(=O)Nc1nc2ccc(C(=O)c3ccccc3)cc2[nH]1` [Compound 1, methyl N-(6-benzoyl-1H-benzimidazol-2-yl)carbamate], the “GI50, concentration to inhibit growth of cancer cells by 50%” value [1] was “nanomolar levels”.

For `COC(=O)Nc1nc2cc(C(=O)c3cccc([131I])c3)ccc2[nH]1` [^125I-4, Methyl N-[5-(3′-[^125/131I]iodobenzoyl)-1H-benzimidazol-2-yl]carbamate], the “stability in human serum, radioactive HPLC trace” value ([2]; 5 hours, 20° C.) was “exclusively non-degraded”, the “stability in human serum, radioactive HPLC trace” value ([2]; 17 hours, 37° C.) was “exclusively non-degraded” and the “stability in human serum” value ([2]; up to 19 hours) was “stable”.

For `COC(=O)Nc1nc2cc(C(=O)c3cccc([131I])c3)ccc2[nH]1` [^131I-4, Methyl N-[5-(3′-[^125/131I]iodobenzoyl)-1H-benzimidazol-2-yl]carbamate], the surviving fraction ([3]; 24 hour exposure to 0.35 MBq) was 0.51±0.067, the surviving fraction ([3]; 48 hour exposure to 0.35 MBq) was 0.06±0.02 and the surviving fraction ([3]; 72 hour exposure to 0.29 MBq) was 0.010±0.004. For the same compound, the survivors ([3]; at higher concentrations) was “no survivors”, the surviving fraction ([4]; 24 hours) was 0.68±0.069 and the surviving fraction ([4]; 48 hours) was 0.08±0.04. The colonies ([4]; 72 hour exposure) was “no colonies”, the “adverse reactions in the blood (hematocrit, hemoglobin)” value [5] was “adverse reactions in the blood were not observed” and the “cytotoxicity, cell survival” value [6] was “cytotoxic to neuroblastoma and glioblastoma cells”. The D10 extracellular [7] was 0.740 MBq/mL, the D10 intracellular [7] was 14,760 (2,550) decays/cell and the D10 intracellular ([7]; value (std err)) was 1.73 (0.34) cpm/cell. For the same compound, the D10 extracellular [8] was 0.410 MBq/mL, the D10 intracellular [8] was 7,620 (530) decays/cell and the D10 intracellular ([8]; value (std err)) was 0.82 (0.09) cpm/cell. For the same compound, the D10 extracellular [9] was 0.176 MBq/mL, the D10 intracellular [9] was 3,010 (395) decays/cell and the D10 intracellular ([9]; value (std err)) was 0.36 (0.05) cpm/cell. For the same compound, the “tumor growth compared to untreated control mice” value ([10]; 14.5±2.3 MBq/mouse) was “dramatically decreases tumor growth”, the xenograft volume median ([10]; day 0 after treatment) was 122 mm^3 and the “xenograft volume avg (std err)” value ([10]; day 0 after treatment, 14.5±2.3 MBq/mouse) was 177 (55) mm^3. For the same compound, the xenograft volume median ([10]; day 4 after treatment) was 169 mm^3, the “xenograft volume avg (std err)” value ([10]; day 4 after treatment, 14.5±2.3 MBq/mouse) was 251 (88) mm^3 and the xenograft volume median ([10]; day 7 after treatment) was 281 mm^3. The “xenograft volume avg (std err)” value ([10]; day 7 after treatment, 14.5±2.3 MBq/mouse) was 277 (76) mm^3, the xenograft volume median ([10]; day 9 after treatment) was 292 mm^3 and the “xenograft volume avg (std err)” value ([10]; day 9 after treatment, 14.5±2.3 MBq/mouse) was 456 (165) mm^3. For the same compound, the xenograft volume median ([10]; day 11 after treatment) was 320 mm^3, the “xenograft volume avg (std err)” value ([10]; day 11 after treatment, 14.5±2.3 MBq/mouse) was 444 (163) mm^3 and the “tumor infiltration (macroautoradiography)” value ([10]; sections of extirpated tumors) was “infiltrates tumors”.
